Experimental findings from publication PMC10069031 (European Journal of Medical Research, 2023) are described below.

The structures appear in SMILES notation.

For assay [1], the system named is F4/80^hi population. In words: F4/80^hi cells in MC38 tumors. In kind it is in vivo, mouse. Particulars: even at 5 mg/kg/day. As to the method: (§1) For tumors, single-cell suspensions were prepared from the fresh tumor pieces using a mouse Tumor Dissociation Kit (Miltenyi Biotec). The final cell pellets were resuspended in 1 mL FC buffer (PBS with 2 mM EDTA, 0.5% bovine serum albumin). Then, 100 µL of the tumor single-cell suspensions and the EDTA blood samples were stained by addition of the antibody cocktail and incubated for 10 min at 4 °C according to the manufacturer’s instructions. After antibody incubation, blood samples were incubated with 2–3 mL lysis buffer (0.17 M NH4Cl, 10 mM KHCO3, 0.1 mM EDTA) for 10–20 min at RT to lyse and remove red blood cells. Subsequently, samples were centrifuged at 300 g for 5 min at 4 °C and cells were washed with 2–3 mL FC buffer. Tumor samples were washed immediately after antibody incubation with 2–3 mL FC buffer without the lysis procedure and centrifuged at 300 g for 5 min at 4 °C. […] Next, 50 µL of blood and 70 µL of tumor cell suspensions were analyzed by FC using MACSQuant Analyzer 10 and MACSQuant Analyzer 16 (Miltenyi Biotec). FC data were analyzed with the FlowLogic software (Inivai Technologies distributed through Miltenyi Biotec; version 7.2.1) and gated as shown in Fig. S1 (see Additional file 2), whereby up to seven subpopulations were identified in the CD45^+ fraction using antibodies against F4/80 and CD115. […]

Assay [2] deals with ERK1/2. The experiment in a line: Inhibition of ERK activation in CSF1-stimulated RAW264.7 cells (western blot). The class given is cell-based, mouse. Particulars: Mus musculus, mean ± SD (replicates), read-out: Mean kinase IC50 values: P(T185,202;Y187,204) ERK1/2 [WB]. The protocol:
(§2) RAW264.7 cells (10^6) were seeded into cell culture dishes 6 cm in diameter and incubated in 4 mL RPMI/10% fetal bovine serum (Biochrom) for 24 h at 37 °C in a humidified 5% CO2 atmosphere. Cells were washed once with phosphate-buffered saline (PBS) and starved in 3 mL RPMI/0.1% bovine serum albumin for another 24 h. Cells were then treated for 1 h at 37 °C with drugs at the indicated final concentrations, with 0.5% DMSO as vehicle control, or left untreated, and finally stimulated for 2 min at 37 °C with 100 ng/mL recombinant mouse CSF1 (R&D Systems) by adding 1 mL prewarmed starving medium containing 400 ng/mL CSF1. Dishes were placed on ice and cells were immediately washed with ice-cold PBS and lysed with 50 µL lysis buffer (50 mM HEPES pH 7.5, 150 mM NaCl, 1.5 mM MgCl2, 10% glycerol, 1% Triton X-100, 0.5% desoxycholate, 0.2% sodium dodecyl sulfate, 1 mM ethylene glycol-bis[β-aminoethyl ether]-N,N,N′,N′-tetraacetic acid, 100 mM NaF, 10 mM Na4P2O7, 1 mM Na3VO4, 1% Phosphatase Inhibitor Cocktail 3 [Sigma-Aldrich], 1 mM phenylmethyl sulfonyl fluoride, Complete Protease Inhibitor Cocktail [Roche CustomBiotech; 1 tablet/10 mL], and 50 U/mL Benzonase [Sigma-Aldrich]). Lysed cells were scraped into Eppendorf tubes, incubated on ice for 20 min, and centrifuged at 4 °C for 10 min at 13,000 rpm; supernatants (lysates) were transferred into new tubes and stored at −80 °C.
(§3) Protein concentrations were determined using Pierce bicinchoninic acid assay (Thermo Fisher Scientific) and 40 µg/lane of total lysate was separated by SDS-PAGE on 4–12% Criterion XT Bis–Tris Gels (Bio-Rad) and subsequently transferred to polyvinylidene difluoride membranes using the Trans Blot Turbo Blotting System (Bio-Rad). For antigen detection, membranes were blocked with PBS Odyssey blocking reagent (LI-COR Biosciences) for 1 h at room temperature (RT). Primary antibodies were incubated overnight at 4 °C and the fluorescent secondary antibodies were incubated for 1 h at RT. After each antibody incubation, blots were washed with PBS with 0.05% Tween 20 (Carl Roth) for 15–30 min at RT. Fluorescent signals were quantitatively captured using the Odyssey DLx Infrared Imaging System (LI-COR Biosciences) and the half-maximal inhibitory concentration (IC50) values were calculated using GraphPad software (version 7 or newer).

For assay [3], the system named is CD115^hi cells in blood. The experiment in a line: CD115^hi cells in blood, MC38 study. In kind it is in vivo, mouse. Particulars: C57BL/6 mice with subcutaneous MC38 CRC tumors. As to the method:
as §1

The test system of assay [4] is AKT. The experiment in a line: Inhibition of AKT activation in CSF1-stimulated RAW264.7 cells (western blot). The class given is cell-based, mouse. Particulars: Mus musculus, mean ± SD (replicates), read-out: Mean kinase IC50 values: P(S473)AKT [WB]. As to the method:
as §2, §3

With `CNC(=O)c1cc(Oc2ccc(NC(=O)Nc3ccc(Cl)c(C(F)(F)F)c3)c(F)c2)ccn1` [REG, Regorafenib], the “reduction of the F4/80^hi population vs vehicle” value in assay [1] is listed as “more than twofold”. The IC50 in assay [2] amounted to 293 ± 123 nM; in assay [4], 141 ± 59 nM. In assay [3], the “number of CD115^hi cells in the blood” value is given as “reduced”.
